Data published in US6552072B2, “Use of metal complexes to treat gastrointestinal infections” (Pfylori Limited, priority 1996, dated 2003).

Test system: H. pylori
Assay: In vitro minimum inhibitor concentrations (MICs) of metal-ligand complexes against H. pylori
Format: cell-based
Details: Example 1
Source text: In Vitro Minimum Inhibitor Concentrations (MICs) Using Metal-ligand Complexes
Study of MICs of Other Metal-ligands Against H. pylori

Row | Compound | MIC (Helicobacter pylori) | MIC against H. pylori
1 | O=C(O)CC(O)(CC(=O)O)C(=O)O [Citrate] | > 0.064 µg/mL | –
2 | O=C([O-])CC(O)(CC(=O)[O-])C(=O)[O-].O=C([O-])CC(O)(CC(=O)[O-])C(=O)[O-].[Zn+2].[Zn+2].[Zn+2] [Zinc Citrate, Zinc citrate] | – | 8 to 64 µg/L
3 | [O-][n+]1ccccc1[S-].[O-][n+]1ccccc1[S-].[Zn+2] [Zinc Salt] | – | >>64 μg/l
